# Paper PMC12486805, “Preclinical evaluation of tridecaptin M: in vitro and in vivo efficacy against colistin-resistant Gram-negative bacterial pathogens and pharmacokinetics” (Antimicrobial Agents and Chemotherapy, 2025)
# Like-named read-outs stand apart in the source and are kept apart here. Where a SMILES comes first, the peptide text is derived from it. [ ]: non-standard residue; d: D form. The star is where a group is joined. d(aIle) = CC[C@H](C)[C@@H](N)C(=O)O; X1 = CC[C@H](C)CCCCC(=O)*; dDab = NCC[C@@H](N)C(=O)O; Dab = NCC[C@H](N)C(=O)O
# What was measured:
# [1] = test system: K. pneumoniae ATCC 700603; details: ATCC 700603, 48 h
# Protocol: LB, TSB, TSB + 1% Glucose, M63, and the M63 media were selected for biofilm experiments ([20], [30], [31]). With some modifications from previous methods, employing CV staining, K. pneumoniae cells were grown in M63 salt media at 37°C, 200 rpm shaking conditions overnight. […] Following incubation, the media and planktonic cells were gently removed, and the wells with adhered biofilm were washed three times with 0.9% saline. […] The biofilm inhibition was calculated as the percentage of biofilm remaining after treatment using the formula:
# Biofilms remaining (%)=OD595 (sample)/OD595 (control)×100%
# [2] = test system: Salmonella typhimurium; format: cell-based
# Protocol: The Salmonella typhimurium histidine-dependent engineered tester strains are allowed to incubate with S9 enzyme mix or PBS (without S9 set) for 30 min at 35°C. After incubation, the mixture was added to 2 mL of top agar tubes maintained at 46 ± 2°C and plated onto minimal glucose agar plates. After solidification, the plates are incubated at 37°C. Salmonella typhimurium auxotrophic mutants, if grown on minimal media, are counted as the number of revertant colonies due to the mutagenic potential of the compound tested. Positive controls, growth controls, and sterility checks are included during the experimentation for the sensitivity of the experiment ([38]).
# [3] = test system: K. pneumoniae; format: cell-based, Klebsiella pneumoniae
# Protocol: The MIC for all isolates was determined using the broth microdilution method. This involved preparing CA-MHB medium and serially diluting antibiotic solutions by a factor of two. The test organism was adjusted to a concentration of ≈5 × 10^5 CFU/mL. In a sterile 96-well microtiter plate, 100 µL of CA-MHB, along with 100 µL of each antibiotic, was added, and serial dilutions were made. A 100 µL suspension of the organism was added to each well and mixed, resulting in a total reaction volume of 200 µL per well. The plate was then incubated at 37°C for 16–18 h. The MIC was identified as the lowest concentration of antibiotic that prevented any visible growth of the organism ([16]).
# [4] = in vitro; details: human, plasma
# Protocol: Plasma protein binding was assessed using the rapid equilibrium dialysis (RED) method, utilizing RED insert devices with a dialysis membrane featuring an 8,000 Dalton molecular weight cutoff for proteins. The test/control items in human, rat, and mouse plasma were prepared at a test concentration of 10 µM using 10 mM DMSO stocks, and the samples were added to the plasma chamber of the RED insert. The device was sealed with tape and incubated in a thermomixer at 37°C with shaking at 300 rpm for 4 h. Following incubation, a 50 µL aliquot of plasma and buffer was collected from each insert and diluted with an equal volume of the opposite matrix to mitigate matrix effects. The samples were quantified using LC-MS/MS analysis and were tested in duplicates.
# [5] = mouse liver microsomes
# Protocol: (§1) For without cofactors, 20 µL of PBS was added instead of pre-incubated cofactors. […] At each specified time, a 100 µL sample was taken, processed through a sample extraction procedure, and submitted for LC-MS/MS analysis ([35]). Half-life (t1/2) of test/control items was determined using the following equation
# (§2) where, elimination rate constant (k) = −(slope of linear regression curve).
# [6] = rat liver microsomes
# Protocol: as §1, §2
smiles,measurement,setting,value
"CC[C@H](C)CCCCC(=O)NCC(=O)N[C@H](CCN)C(=O)NCC(=O)N[C@H](CO)C(=O)N[C@H](Cc1c[nH]c2ccccc12)C(=O)N[C@@H](CO)C(=O)N[C@@H](CCN)C(=O)N[C@H](CCN)C(=O)N[C@H](C(=O)N[C@@H](CCC(=O)O)C(=O)N[C@H](C(=O)N[C@@H](C(=O)N[C@@H](CO)C(=O)O)[C@@H](C)CC)[C@@H](C)CC)[C@@H](C)CC [Tridecaptin M, tridecaptin M] (X1-G[dDab]G[dS][dW]S[Dab][dDab]IEI[d(aIle)]S-OH)",% Biofilm remaining (biofilm inhibition),[1]; 1,29.6%
same,% Biofilm remaining (biofilm inhibition),[1]; 2,7.0%
same,% Biofilm remaining (biofilm inhibition),[1]; 5,0.5%
same,AMES test Remark,[2]; 0.03 μg/plate,Mutagenic response not observed
same,AMES test TA98,[2]; 0.03 μg/plate,"NC, NR"
same,AMES test TA100,[2]; 0.03 μg/plate,"NC, NR"
same,AMES test TA102,[2]; 0.03 μg/plate,"NC, NR"
same,AMES test TA1535,[2]; 0.03 μg/plate,"NC, NR"
same,AMES test TA1537,[2]; 0.03 μg/plate,"NC, NR"
same,AMES test Remark,[2]; 0.10 μg/plate,Mutagenic response not observed
same,AMES test TA98,[2]; 0.10 μg/plate,"NC, NR"
same,AMES test TA100,[2]; 0.10 μg/plate,"NC, NR"
same,AMES test TA102,[2]; 0.10 μg/plate,"NC, NR"
same,AMES test TA1535,[2]; 0.10 μg/plate,"NC, NR"
same,AMES test TA1537,[2]; 0.10 μg/plate,"NC, NR"
same,AMES test Remark,[2]; 0.32 μg/plate,Mutagenic response not observed
same,AMES test TA98,[2]; 0.32 μg/plate,"NC, NR"
same,AMES test TA100,[2]; 0.32 μg/plate,"NC, NR"
same,AMES test TA102,[2]; 0.32 μg/plate,"NC, NR"
same,AMES test TA1535,[2]; 0.32 μg/plate,"NC, NR"
same,AMES test TA1537,[2]; 0.32 μg/plate,"NC, NR"
same,AMES test Remark,[2]; 1.00 μg/plate,Mutagenic response not observed
same,AMES test TA98,[2]; 1.00 μg/plate,"NC, NR"
same,AMES test TA100,[2]; 1.00 μg/plate,"NC, NR"
same,AMES test TA102,[2]; 1.00 μg/plate,"NC, NR"
same,AMES test TA1535,[2]; 1.00 μg/plate,"NC, NR"
same,AMES test TA1537,[2]; 1.00 μg/plate,"NC, NR"
same,AMES test Remark,[2]; 3.16 μg/plate,Mutagenic response not observed
same,AMES test TA98,[2]; 3.16 μg/plate,"NC, NR"
same,AMES test TA100,[2]; 3.16 μg/plate,"NC, NR"
same,AMES test TA102,[2]; 3.16 μg/plate,"NC, NR"
same,AMES test TA1535,[2]; 3.16 μg/plate,"NC, NR"
same,AMES test TA1537,[2]; 3.16 μg/plate,"NC, NR"
same,AMES test Remark,[2]; 10 μg/plate,Cytotoxicity observed
same,AMES test TA98,[2]; 10 μg/plate,"PI, RC"
same,AMES test TA100,[2]; 10 μg/plate,"PI, RC"
same,AMES test TA102,[2]; 10 μg/plate,"PI, RC"
same,AMES test TA1535,[2]; 10 μg/plate,"PI, RC"
same,AMES test TA1537,[2]; 10 μg/plate,"PI, RC"
same,effect on Salmonella typhimurium tester strains,[2]; 10 µg/plate and above,cytotoxic
same,mutagenic potential,"[2]; 3.16, 1.00, 0.32 and 0.10 µg/plate, presence and absence of S9",did not show any mutagenic potential
same,MIC,[3],4 µg/mL
same,MIC90,[3],8 µg/mL
same,MIC range,[3],2 to 8 µg/mL
same,MIC values,[3],2 to 8 µg/mL
same,"fraction unbound at 4 h, 10 µM",[4],0.227
same,CL,[5],<11.55 µL/min/mg
same,CL,[6],<11.55 µL/min/mg
